Reference: patent US6660752B2, “2,6-Substituted chroman derivatives useful as beta-3 adrenoreceptor agonists” (Bayer Pharmaceuticals Corporation, priority 2001, dated 2003)
Counter-ions that a name gives are not always drawn.

Target: T1, human beta-3-adrenergic receptor (Homo sapiens, UniProt P13945)
T1 construct: stably express full-length human beta-3-adrenergic receptor; expressed in transfected cells; host or cells: Chinese hamster ovary (CHO) cells
Test: cAMP production (beta-3 agonist activity) in CHO cells stably expressing human beta-3-adrenergic receptor, cAMP SPA
Format: cell-based
Details: CHO cells expressing full-length human beta-3-adrenergic receptor, 30 min incubation, 10 μM to 3 nM, read-out: Beta-3 Agonistic Activity: Compounds with EC50 values >1 μM
Procedure: Chinese hamster ovary (CHO) cells that stably express full-length human beta-3-adrenergic receptor (Granneman et al., Mol. Pharmacol. 44:264-270, 1993) can be used in the following procedure. The cell line is grown in 90% F12 nutrient mixture (HAM), 10% fetal bovine serum, 100 units/ml penicillin G sodium, […] streptomycin sulfate, and 2 mM L-glutamine at 37° C. in 95% air and 5% CO2. The transfected cell line is maintained with G-418 (800 μg/ml).
To test the agonist activity, cells are exposed to test compound and then assayed for cAMP production. CHO cells (100 μl) are plated at 5×10^4 cells/well of a 96-well plate (Costar, Cambridge, Mass.) to achieve 70% confluency the next day. After overnight incubation at 37° C., media is removed and the cells are treated for 30 minutes at 37° C. with KRP buffer (120 mM NaCl, 5.1 mM KCl, 0.6 mM MgSO4.7H2O, 0.8 mM CaCl2.H2O, […] phosphate buffer, […] Hepes pH 7.4)+[…] IBMX ([…]), +1% DMSO, +/− test compounds ([…]). Test compounds are assayed from 10 μM to 3 nM with 3-fold serial dilutions. The control agonist, isoproterenol (10 mM stock in 1.1 mM ascorbate), is assayed by 3-fold dilution beginning at 1 μM. After a 30-minute incubation with the test compounds, the buffer/compound mixture is removed. The cells are lysed and cAMP levels are measured using the cAMP SPA screening assay system (Amersham, Arlington Heights, Ill.). The cAMP values are then plotted to determine the EC50 of each compound tested.

T1 sequence (P13945 whole entry): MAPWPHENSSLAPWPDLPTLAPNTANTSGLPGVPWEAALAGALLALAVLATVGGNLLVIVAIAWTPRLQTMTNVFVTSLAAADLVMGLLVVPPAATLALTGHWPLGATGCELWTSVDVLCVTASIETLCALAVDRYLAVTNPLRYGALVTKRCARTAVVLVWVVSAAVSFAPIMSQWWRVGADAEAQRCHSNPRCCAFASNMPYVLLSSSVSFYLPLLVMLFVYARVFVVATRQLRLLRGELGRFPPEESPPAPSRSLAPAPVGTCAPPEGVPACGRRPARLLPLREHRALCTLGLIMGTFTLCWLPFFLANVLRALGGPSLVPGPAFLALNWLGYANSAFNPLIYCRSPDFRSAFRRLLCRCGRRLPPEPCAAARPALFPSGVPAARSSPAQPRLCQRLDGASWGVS

Q: How did the EC50 turn out when `COc1cccc(-c2ccc3c(c2)CC[C@H](CNC[C@H](O)c2cccnc2)O3)c1` [Example 43] was run?
A: Its EC50 is over 1000 nM.

Q: For `Cc1ccc(-c2ccc3c(c2)CC[C@H](CNC[C@H](O)c2cccnc2)O3)cc1` [Example 45], which EC50 is on record?
A: Its EC50 is over 1000 nM.

Same assay, conditions: CHO cells expressing full-length human beta-3-adrenergic receptor, 30 min incubation, 10 μM to 3 nM, read-out: Beta-3 Agonistic Activity: Compounds with EC50 values ≦1 μM

Q: Which EC50 does the source give for `Cc1ccc(C(=O)NS(=O)(=O)c2cccc(-c3ccc4c(c3)CC[C@H](CNC[C@H](O)c3cccnc3)O4)c2)cc1` [Example 299] here?
A: The EC50 was at most 1000 nM.

Q: With `O=C(O)c1ccc(-c2ccc3c(c2)CC[C@H](CNC[C@@H](O)c2cccc(Cl)c2F)O3)cc1` [Example 352] as the compound, how does the EC50 read?
A: The EC50 was at most 1000 nM.

Q: For `Nc1ccc([C@@H](O)CNC[C@H]2CCc3cc(C(=O)NCC(=O)O)ccc3O2)cn1` [Example 362, N-{[(2R)-2-({[(2R)-2-(6-amino-3-pyridinyl)-2-hydroxyethyl]amino}methyl)-3,4-dihydro-2H-chromen-6-yl]carbonyl}glycine], which EC50 is on record?
A: Its EC50 is at most 1000 nM.

Q: For `O=S(=O)(Nc1ccc(-c2ccc3c(c2)CC[C@H](CNC[C@H](O)c2cccnc2)O3)nc1)c1ccc(Cl)cc1` [Example 320, 4-chloro-N-{6-[(2R)-2-({[(2R)-2-hydroxy-2-(3-pyridinyl)ethyl]amino}methyl)-3,4-dihydro-2H-chromen-6-yl]-3-pyridinyl}benzenesulfonamide], which EC50 is on record?
A: Its EC50 is at most 1000 nM.

Q: How did the EC50 turn out when `O[C@@H](CNC[C@H]1CCc2cc(-c3ccc(F)cc3)ccc2O1)c1cccnc1` [Example 48] was run?
A: Its EC50 is at most 1000 nM.

Q: `CC(=O)Nc1ccc(-c2ccc3c(c2)CC[C@H](CNC[C@H](O)c2cccnc2)O3)nc1` [Example 323] was tested. Which EC50 did it give?
A: The EC50 was at most 1000 nM.

Q: How did the EC50 turn out when `N#Cc1cc([N+](=O)[O-])ccc1NS(=O)(=O)c1cccc(-c2ccc3c(c2)CC[C@H](CNC[C@H](O)c2cccnc2)O3)c1` [Example 259, N-(2-cyano-4-nitrophenyl)-3-[(2R)-2-({[(2R)-2-hydroxy-2-(3-pyridinyl)ethyl]amino}methyl)-3,4-dihydro-2H-chromen-6-yl]benzenesulfonamide] was run?
A: Its EC50 is at most 1000 nM.

Q: How did the EC50 turn out when `O=C(Nc1ccccc1)NS(=O)(=O)c1cccc(-c2ccc3c(c2)CC[C@H](CNC[C@H](O)c2cccnc2)O3)c1` [Example 332] was run?
A: Its EC50 is at most 1000 nM.

Q: For `COc1cc(-c2ccc3c(c2)CC[C@H](CNC[C@H](O)c2cccnc2)O3)ccc1C(=O)O` [Example 184, 4-[(2R)-2-({[(2R)-2-hydroxy-2-(3-pyridinyl)ethyl]amino}methyl)-3,4-dihydro-2H-chromen-6-yl]-2-methoxybenzoic acid], which EC50 is on record?
A: The EC50 was at most 1000 nM.

Q: For `COc1ccc([C@H](O)CNC[C@H]2CCc3cc(-c4ccc(C(=O)O)cc4)ccc3O2)cn1` [Example 343], which EC50 is on record?
A: Its EC50 is at most 1000 nM.

Q: For `O=S(=O)(Nc1cccnc1)c1cccc(-c2ccc3c(c2)CC[C@H](CNC[C@H](O)c2cccnc2)O3)c1` [Example 260], which EC50 is on record?
A: Its EC50 is at most 1000 nM.

Q: Which EC50 does the source give for `O=C(O)c1ccc(CCc2ccc3c(c2)CCC(CNC[C@H](O)c2cccnc2)O3)cc1` (stereo in doubt) [Example 215, 4-{2-[(2S)-2-({[(2R)-2-hydroxy-2-(3-pyridinyl)ethyl]amino}methyl)-3,4-dihydro-2H-chromen-6-yl]ethyl}benzoic Acid] here?
A: Its EC50 is at most 1000 nM.

Q: Which EC50 does the source give for `COCCOc1cc(-c2ccc3c(c2)CC[C@H](CNC[C@H](O)c2cccnc2)O3)ccc1C(=O)O` [Example 187, 4-[(2R)-2-({[(2R)-2-hydroxy-2-(3-pyridinyl)ethyl]amino}methyl)-3,4-dihydro-2H-chromen-6-yl]-2-(2-methoxyethoxy)benzoic acid] here?
A: The EC50 was at most 1000 nM.

Q: For `O=C(CC(F)(F)F)NS(=O)(=O)c1ccc(-c2ccc3c(c2)CC[C@H](CNC[C@H](O)c2cccnc2)O3)cc1` [Example 284, 4-[(2R)-2-({[(2R)-2-hydroxy-2-(3-pyridinyl)ethyl]amino}methyl)-3,4-dihydro-2H-chromen-6-yl]-N-(3,3,3-trifluoropropanoyl)benzenesulfonamide], which EC50 is on record?
A: The EC50 was at most 1000 nM.

Q: With `COc1cccc(C(=O)NS(=O)(=O)c2ccc(-c3ccc4c(c3)CC[C@H](CNC[C@H](O)c3cccnc3)O4)cc2)c1` [Example 293, 4-[(2R)-2-({[(2R)-2-hydroxy-2-(3-pyridinyl)ethyl]amino}methyl)-3,4-dihydro-2H-chromen-6-yl]-N-(3-methoxybenzoyl)benzenesulfonamide] as the compound, how does the EC50 read?
A: Its EC50 is at most 1000 nM.

Q: How did the EC50 turn out when `COc1ccc(-c2ccc3c(c2)CCC(CNC[C@H](O)c2cccnc2)O3)cc1S(=O)(=O)Nc1ccc(C#N)cc1` (stereo partly drawn) [Example 277] was run?
A: Its EC50 is at most 1000 nM.

Q: `O[C@@H](CNC[C@H]1CCc2cc(I)ccc2O1)c1cccnc1` [Example 36, (1R)-2-({[(2R)-6-iodo-3,4-dihydro-2H-chromen-2-yl]methyl}amino)-1-(3-pyridinyl)ethanol] was tested. Which EC50 did it give?
A: The EC50 was at most 1000 nM.

Q: For `O=C(Nc1ccc(-c2ccc3c(c2)CC[C@H](CNC[C@H](O)c2cccnc2)O3)nc1)c1ccccc1` [Example 322], which EC50 is on record?
A: The EC50 was at most 1000 nM.

Q: Which EC50 does the source give for `Cc1ccc(C(=O)NS(=O)(=O)c2ccc(-c3ccc4c(c3)CC[C@H](CNC[C@H](O)c3cccnc3)O4)cc2)cc1` [Example 296] here?
A: The EC50 was at most 1000 nM.

Q: With `CN(C)CC(=O)NS(=O)(=O)c1cccc(-c2ccc3c(c2)CC[C@H](CNC[C@H](O)c2cccnc2)O3)c1` [Example 304] as the compound, how does the EC50 read?
A: The EC50 was at most 1000 nM.

Q: How did the EC50 turn out when `O=C(O)c1ccc(-c2ccc3c(c2)CC[C@H](CNC[C@H](O)c2cccnc2)O3)cc1Oc1ccccc1` [Example 192, 4-[(2R)-2-({[(2R)-2-hydroxy-2-(3-pyridinyl)ethyl]amino}methyl)-3,4-dihydro-2H-chromen-6-yl]-2-(phenyloxy)benzoic Acid] was run?
A: Its EC50 is at most 1000 nM.

Q: For `CC(=O)c1ccc(NS(=O)(=O)c2ccc(-c3ccc4c(c3)CC[C@H](CNC[C@H](O)c3cccnc3)O4)cc2)cc1` [Example 264], which EC50 is on record?
A: Its EC50 is at most 1000 nM.

Q: Which EC50 does the source give for `O=S(=O)(Nc1cccnc1)c1ccc(-c2ccc3c(c2)CC[C@H](CNC[C@H](O)c2cccnc2)O3)cc1` [Example 253, 4-[(2R)-2-({[(2R)-2-hydroxy-2-(3-pyridinyl)ethyl]amino}methyl)-3,4-dihydro-2H-chromen-6-yl]-N-(3-pyridinyl)benzenesulfonamide] here?
A: The EC50 was at most 1000 nM.

Q: How did the EC50 turn out when `CC(C)Cc1cc(-c2ccc3c(c2)CC[C@H](CNC[C@H](O)c2cccnc2)O3)ccc1C(=O)O` [Example 211, 4-[(2R)-2-({[(2R)-2-hydroxy-2-(3-pyridinyl)ethyl]amino}methyl)-3,4-dihydro-2H-chromen-6-yl]-2-isobutylbenzoic Acid] was run?
A: Its EC50 is at most 1000 nM.

Q: `COC(=O)c1cccc(-c2ccc3c(c2)CC[C@H](CNC[C@H](O)c2ccc(N)nc2)O3)c1` [Example 382] was tested. Which EC50 did it give?
A: The EC50 was at most 1000 nM.

Q: For `COCC(=O)NS(=O)(=O)c1ccc(-c2ccc3c(c2)CC[C@H](CNC[C@H](O)c2cccnc2)O3)cc1` [Example 291], which EC50 is on record?
A: Its EC50 is at most 1000 nM.

Q: `CC1(O)C(=O)NN(c2cccc(-c3ccc4c(c3)CC[C@@H](CNC[C@H](O)c3cccnc3)O4)c2)C1=O` (stereo partly drawn) [Example 314, 4-hydroxy-1-{3-[(2S)-2-({[(2R)-2-hydroxy-2-(3-pyridinyl)ethyl]amino}methyl)-3,4-dihydro-2H-chromen-6-yl]phenyl}-4-methyl-3,5-pyrazolidinedione Dihydrochloride] was tested. Which EC50 did it give?
A: The EC50 was at most 1000 nM.

Q: Which EC50 does the source give for `COc1ccc(-c2ccc3c(c2)CC[C@H](CNC[C@H](O)c2cccnc2)O3)cc1S(=O)(=O)Nc1ccc(C(C)=O)cc1` [Example 280] here?
A: Its EC50 is at most 1000 nM.

Q: `O=C(NS(=O)(=O)c1cccc(-c2ccc3c(c2)CCC(CNC[C@H](O)c2cccnc2)O3)c1)c1ccc(Cl)cc1` (stereo partly drawn) [Example 301] was tested. Which EC50 did it give?
A: Its EC50 is at most 1000 nM.

Q: `O=S(=O)(Nc1nccs1)c1ccc(-c2ccc3c(c2)CC[C@H](CNC[C@H](O)c2cccnc2)O3)cc1` [Example 265, 4-[(2R)-2-({[(2R)-2-hydroxy-2-(3-pyridinyl)ethyl]amino}methyl)-3,4-dihydro-2H-chromen-6-yl]-N-(1,3-thiazol-2-yl)benzenesulfonamide] was tested. Which EC50 did it give?
A: Its EC50 is at most 1000 nM.

Q: For `O=C(O)c1ccc(-c2ccc3c(c2)CC[C@H](CNC[C@H](O)c2cccnc2)O3)cc1Oc1ccc(F)cc1` [Example 193, 2-(4-fluorophenoxy)-4-[(2R)-2-({[(2R)-2-hydroxy-2-(3-pyridinyl)ethyl]amino}methyl)-3,4-dihydro-2H-chromen-6-yl]benzoic acid], which EC50 is on record?
A: The EC50 was at most 1000 nM.

Q: With `Cc1ccc(NC(=O)NS(=O)(=O)c2cccc(-c3ccc4c(c3)CC[C@H](CNC[C@H](O)c3cccnc3)O4)c2)cc1` [Example 324, 3-((1R)-1-hydroxy-2-{[((2R)-6-{3-[({[(4-methylphenyl)amino]carbonyl}amino)sulfonyl]phenyl}-3,4-dihydro-2H-chromen-2-yl)methyl]amino}ethyl)pyridine Hydrochloride] as the compound, how does the EC50 read?
A: Its EC50 is at most 1000 nM.

Q: How did the EC50 turn out when `O=C(NS(=O)(=O)c1ccc(-c2ccc3c(c2)CC[C@H](CNC[C@H](O)c2cccnc2)O3)cc1)C(C(F)(F)F)C(F)(F)F` [Example 288] was run?
A: Its EC50 is at most 1000 nM.

Q: How did the EC50 turn out when `CCOCC(=O)NS(=O)(=O)c1ccc(-c2ccc3c(c2)CC[C@H](CNC[C@H](O)c2cccnc2)O3)cc1` [Example 286, N-(ethoxyacetyl)-4-[(2R)-2-({[(2R)-2-hydroxy-2-(3-pyridinyl)ethyl]amino}methyl)-3,4-dihydro-2H-chromen-6-yl]benzenesulfonamide] was run?
A: The EC50 was at most 1000 nM.
